The assay has as its target Granzyme B (human lymphocytes) (Homo sapiens (Human), UniProt P10144). In words: human Granzyme B biochemical assay. An excerpt:
The compounds of Formula I-VIII described above can be tested using the human Granzyme B biochemical assay provided below.
Materials: • 1. Granzyme B (human lymphocytes) Enzyme: Enzo Lifesciences, Cat #ALX-200-602-0010 • 2. Substrate (Ac-IETD-AFC): Enzo Lifesciences, Cat #ALX-260-110-M010 • 3. Standard inhibitor (Compound 20-Isomer3): Synthesized internally in TCG • 4. Dimethyl sulfoxide (DMSO): Sigma-Aldrich, Cat #41639 • 5. HEPES: Gibco, Cat #15630-080 • 6. Calcium chloride: Sigma-Aldrich, Cat #C-5080 • 7. Distilled water: Gibco, Cat #15230-162 • 8. Bovine serum albumin (BSA): Sigma-Aldrich, Cat #A3059 • 9. Black, clear bottom PDL plate (384 wells): Greiner bio-one, Cat #781946 • 10. Polypropylene plate (384 wells): Corning, Cat #3657 Assay Buffer Composition:
Compound Preparation: • 1. DMSO is added to the respective compound vial to make 10 mM Compound stock solution, which is stored at −20° C. • 2. 10 mM Compound stock solution is thawed and 1 mM DMSO stock solution is prepared by adding 45 μl of DMSO to 5 μl of 10 mM compound stock solution. • 3. 1 mM DMSO stock solution is serially diluted (3.16 fold) by adding 10 μl of 1 mM DMSO stock to 21.6 μl of DMSO and mixed well. 10 μl of the resulting solution is then added to 21.6 μl of DMSO and mixed well. This process is continued to create 11 dilution points for the assay standard inhibitor and 8 dilution points for test compounds in 384 well polypropylene plate. • 4. 2 μl of each dilution are dispensed in assay ready plate. • 5. Each well is then diluted 25 fold by adding 48 μl of assay buffer to 2 μl of compound in assay ready plate to make Compound working stock. Enzyme Preparation: • 1. Supplied Granzyme B (human lymphocytes) enzyme is reconstituted to 1 mg/ml (about 31.25 μM) and 1 μl aliquots are kept in −80° C. • 2. 1 μl aliquot is diluted to 625 nM by adding 49 μl of assay buffer containing 0.1% BSA and gently mixed. • 3. 10 nM enzyme working stock is prepared by adding assay buffer containing 0.1% BSA. Substrate Preparation: • 1. Supplied substrate (Ac-IETD-AFC) is reconstituted by adding DMSO to make 10 mM stock, aliquoted and stored in −80° C. • 2. 4 mM substrate mid stock is prepared by adding DMSO. • 3. Substrate working stock i.e. 800 μM is prepared by adding assay buffer. Assay Protocol: • 1. 10 μl of serially diluted Compound working stock (start dose 40 μM) is added from assay ready plate to assay plate according to the plate map. • 2. Positive control (40 μM of standard inhibitor) and negative control (4% DMSO buffer) are added to the respective wells. • 3. 20 μl of Enzyme working stock is added to assay plate and gently mixed. • 4. The plate is incubated at 22° C. for 30 mins and spun at 130 g for 1 minute. • 5. After incubation, 10 μl of Substrate working stock is added to respective wells and mixed (Assay plate is maintained in dark after substrate addition). • 6. The plate is incubated at 22° C. for 60 mins and spun at 130 g for 1 minute. • 7. Fluorescence read (RFU) (Ex: 400 nm/Em: 505 nm) is taken after 60 mins in EnVision Multimode plate reader. Final Assay Concentration:
Data Analysis: • 1. The RFU read is analyzed to calculate percent inhibition by normalizing with positive and negative controls taken as 100% and 0% effect respectively in Microsoft excel. • 2. Graph is generated by putting the analyzed data in GraphPad prism 5.0 software to get IC50 value for each compound.

Where [1] appears, read: Granzyme B (human lymphocytes) 5 nM, substrate Ac-IETD-AFC 200 μM, Cpd incubation with enzyme 30 mins, 22° C., read time 60 mins, read-out: IC50.

This note sets out measurements from patent US11667645B2, “Granzyme B directed imaging and therapy” (CytoSite Biopharma Inc., priority 2018, dated 2023).

Where two headings read alike, the source gives them in different places.

Chain of Granzyme B (human lymphocytes) (P10144 21-247): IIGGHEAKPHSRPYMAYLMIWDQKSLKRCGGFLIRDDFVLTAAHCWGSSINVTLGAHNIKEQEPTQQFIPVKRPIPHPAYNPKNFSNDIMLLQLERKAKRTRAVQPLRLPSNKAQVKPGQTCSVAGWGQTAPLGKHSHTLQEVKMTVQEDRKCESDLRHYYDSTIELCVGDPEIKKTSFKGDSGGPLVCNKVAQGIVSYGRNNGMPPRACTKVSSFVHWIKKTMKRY

Consider `CC[C@H](C)[C@H](NC(=O)COCCF)C(=O)N[C@H]1CCc2cccc3c2N(C1=O)[C@H](C(=O)NCc1ccncc1)C3` [Compound C123, (2S,5S)-5-{(2S,3S)-2-[2-(2-Fluoro-ethoxy)-acetylamino]-3-methyl-pentanoylamino}-4-oxo-1,2,4,5,6,7-hexahydro-azepino[3,2,1-hi]indole-2-carboxylic acid (pyridin-4-ylmethyl)-amide], for which the IC50 (commonly the concentration at which inhibition is half-maximal) under setting [1] was greater than 5000 nM.

As for `CC[C@H](C)[C@H](NC(=O)COCCF)C(=O)N[C@H]1CCc2cccc3c2N(C1=O)[C@H](C(=O)NCc1ccco1)C3` [Compound C105, (2S,5S)-5-{(2S,3S)-2-[2-(2-Fluoro-ethoxy)-acetylamino]-3-methyl-pentanoylamino}-4-oxo-1,2,4,5,6,7-hexahydro-azepino[3,2,1-hi]indole-2-carboxylic acid (furan-2-ylmethyl)-amide], the IC50 under setting [1] was greater than 5000 nM.

In the case of `CC[C@H](C)[C@H](NC(=O)COCCF)C(=O)N[C@H]1CN(C)c2cccc3c2N(C1=O)[C@H](C(=O)NCc1c[nH]nn1)C3` [Compound C144, (3S,6S)-3-{(2S,3S)-2-[2-(2-Fluoro-ethoxy)-acetylamino]-3-methyl-pentanoylamino}-1-methyl-4-oxo-1,2,3,4,6,7-hexahydro-[1,4]diazepino[3,2,1-hi]indole-6-carboxylic acid (1H-[1,2,3]triazol-4-ylmethyl)-amide], the concentration for half-maximal inhibition (IC50) under setting [1] lay within 1 to 300 nM.

For `CC[C@H](C)[C@H](NC(=O)c1ccncc1)C(=O)N[C@H]1CCc2cccc3c2N(C1=O)[C@H](C(=O)NCc1c[nH]nn1)C3` [Compound C068, (2S,5S)-5-{(2S,3S)-3-Methyl-2-[(pyridine-4-carbonyl)-amino]-pentanoylamino}-4-oxo-1,2,4,5,6,7-hexahydro-azepino[3,2,1-hi]indole-2-carboxylicacid (1H-[1,2,3]triazol-4-ylmethyl)-amide], the IC50 under setting [1] lay in the range of 1 to 300 nM.

With `O=C(N[C@H](C(=O)N[C@H]1CCc2cccc3c2N(C1=O)[C@H](C(=O)NCc1c[nH]nn1)C3)C1CCCC1)c1ccccc1` [Compound C076, (2S,5S)-5-((S)-2-Benzoylamino-2-cyclopentyl-acetylamino)-4-oxo-1,2,4,5,6,7-hexahydro-azepino[3,2,1-hi]indole-2-carboxylic acid (1H-[1,2,3]triazol-4-ylmethyl)-amide], the IC50 under setting [1] lay within 1 to 300 nM.

As to `CC(=O)N[C@@H](Cc1ccccc1)C(=O)N[C@H]1CCc2cccc3c2N(C1=O)[C@H](C(=O)NCc1c[nH]nn1)C3` [Compound C026, (2S,5S)-5-((S)-2-Acetylamino-3-phenyl-propionylamino)-4-oxo-1,2,4,5,6,7-hexahydro-azepino[3,2,1-hi]indole-2-carboxylic acid (1H-[1,2,3]triazol-4-ylmethyl)-amide], the IC50 under setting [1] is 1000 to 5000 nM.

Consider `O=C(O)CC[C@H](NC(=O)Cc1ccccc1)C(=O)N[C@H]1CCc2cccc3c2N(C1=O)[C@H](C(=O)NCc1c[nH]nn1)C3` [Compound C019, (S)-4-{(2S,5S)-4-Oxo-2-[(1H-[1,2,3]triazol-4-ylmethyl)-carbamoyl]-1,2,4,5,6,7-hexahydro-azepino[3,2,1-hi]indol-5-ylcarbamoyl}-4-phenylacetylamino-butyric acid], for which the IC50 under setting [1] was greater than 5000 nM.

In the case of `CC[C@H](C)[C@H](NC(=O)Cc1cc2ccccc2o1)C(=O)N[C@H]1CCc2cccc3c2N(C1=O)[C@H](C(=O)NCc1c[nH]nn1)C3` [Compound C159, (2S,5S)-5-[(2S,3S)-2-(2-Benzofuran-2-yl-acetylamino)-3-methyl-pentanoylamino]-4-oxo-1,2,4,5,6,7-hexahydro-azepino[3,2,1-hi]indole-2-carboxylic acid (1H-[1,2,3]triazol-4-ylmethyl)-amide], under setting [1], the half-inhibitory concentration (IC50) lay in the range of 1 to 300 nM.

In the case of `CC(C)[C@H](NC(=O)c1cccnc1)C(=O)N[C@H]1CCc2cccc3c2N(C1=O)[C@H](C(=O)NCc1c[nH]nn1)C3` [Compound C070, (2S,5S)-5-{(S)-3-Methyl-2-[(pyridine-3-carbonyl)-amino]-butyrylamino}-4-oxo-1,2,4,5,6,7-hexahydro-azepino[3,2,1-hi]indole-2-carboxylic acid (1H-[1,2,3]triazol-4-ylmethyl)-amide], the IC50 under setting [1] is 1 to 300 nM.

Turning to `CC(C)[C@H](NC(=O)CF)C(=O)N[C@H]1COc2cccc3c2N(C1=O)[C@H](C(=O)NCc1c[nH]nn1)C3` [Compound C102, (1S,8S)-8-[(S)-2-(2-Fluoro-acetylamino)-3-methyl-butyrylamino]-9-oxo-1,2,8,9-tetrahydro-7H-6-oxa-9a-aza-benzo[cd]azulene-1-carboxylic acid (1H-[1,2,3]triazol-4-ylmethyl)-amide], the IC50 fell in the range of 1 to 300 nM.

With `CC[C@H](C)[C@H](NC(=O)COCCF)C(=O)N[C@H]1CCc2cccc3c2N(C1=O)[C@H](C(=O)NCc1ccc(C)cc1)C3` [Compound C129, (2S,5S)-5-{(2S,3S)-2-[2-(2-Fluoro-ethoxy)-acetylamino]-3-methyl-pentanoylamino}-4-oxo-1,2,4,5,6,7-hexahydro-azepino[3,2,1-hi]indole-2-carboxylic acid 4-methyl-benzylamide], under setting [1], the IC50 is greater than 5000 nM.

With `O=C(Cc1ccccc1)N[C@@H](Cc1ccccc1)C(=O)N[C@H]1CCc2cccc3c2N(C1=O)[C@H](C(=O)NCc1c[nH]nn1)C3` [Compound C015, (2S,5S)-4-Oxo-5-((S)-3-phenyl-2-phenylacetylamino-propionylamino)-1,2,4,5,6,7-hexahydro-azepino[3,2,1-hi]indole-2-carboxylic acid (1H-[1,2,3]triazol-4-ylmethyl)-amide], the IC50 under setting [1] lay within 1000 to 5000 nM.

As for `O=C(Cc1csc2ccccc12)N[C@H](C(=O)N[C@H]1CCc2cccc3c2N(C1=O)[C@H](C(=O)NCc1c[nH]nn1)C3)c1ccccc1` [Compound C009, (2S,5S)-5-[(S)-2-(2-Benzo[b]thiophen-3-yl-acetylamino)-2-phenyl-acetylamino]-4-oxo-1,2,4,5,6,7-hexahydro-azepino[3,2,1-hi]indole-2-carboxylic acid (1H-[1,2,3]triazol-4-ylmethyl)-amide], under setting [1], the half-inhibitory concentration (IC50) was greater than 5000 nM.

As for `CC(C)[C@H](NC(=O)Cc1ccccc1)C(=O)N[C@H]1CCc2cccc3c2N(C1=O)[C@H](C(=O)NCc1c[nH]nn1)C3` [Compound C014, (2S,5S)-5-((S)-3-Methyl-2-phenylacetylamino-butyrylamino)-4-oxo-1,2,4,5,6,7-hexahydro-azepino[3,2,1-hi]indole-2-carboxylic acid (1H-[1,2,3]triazol-4-ylmethyl)-amide], the IC50 under setting [1] lay in the range of 1 to 300 nM.

On to `CC[C@H](C)[C@H](NC(=O)CC1Cc2ccccc2O1)C(=O)N[C@H]1CCc2cccc3c2N(C1=O)[C@H](C(=O)NCc1c[nH]nn1)C3` (stereo partly drawn) [Compound C173, (2S,5S)-5-[(2S,3S)-2-(2-2,3-Dihydro-benzofuran-2-yl-acetylamino)-3-methyl-pentanoylamino]-4-oxo-1,2,4,5,6,7-hexahydro-azepino[3,2,1-hi]indole-2-carboxylic acid (1H-[1,2,3]triazol-4-ylmethyl)-amide], for which the IC50 under setting [1] fell in the range of 1 to 300 nM.

Regarding `CC[C@H](C)[C@H](NC(=O)COCCF)C(=O)N[C@H]1CCc2cccc3c2N(C1=O)[C@H](C(=O)NCc1ccc(Cl)cc1)C3` [Compound C132, (2S,5S)-5-{(2S,3S)-2-[2-(2-Fluoro-ethoxy)-acetylamino]-3-methyl-pentanoylamino}-4-oxo-1,2,4,5,6,7-hexahydro-azepino[3,2,1-hi]indole-2-carboxylic acid 4-chloro-benzylamide], the IC50 under setting [1] is greater than 5000 nM.
